Experimental data taken from ChEMBL document CHEMBL3603826, “6-Arylpyrazine-2-carboxamides: A New Core for Trypanosoma brucei Inhibitors” (J Med Chem, 2015).
Converted amounts (≈) assume the structure as drawn. Blank lines part the entries; values can stand above or below the molecule they belong to.

Legend:
Liver microsome [1] = assay: Drug level in human liver microsomes treated with 10 uM 3-Amino-N-cyclopentyl-6-(m-tolyl)pyrazine-2-carboxamide assessed as compound formation after 60 mins absence of NADPH regenerating system and UDPGA by LC-MS method; assay type: ADME; conditions: 1 h
Liver microsome [2] = assay: Drug level in human liver microsomes treated with 10 uM 3-Amino-N-cyclopentyl-6-(m-tolyl)pyrazine-2-carboxamide assessed as compound formation after 60 mins presence of NADPH regenerating system by LC-MS method; assay type: ADME; conditions: 1 h
Liver microsome [3] = assay: Drug level in human liver microsomes treated with 10 uM 3-Amino-N-cyclopentyl-6-(m-tolyl)pyrazine-2-carboxamide assessed as compound formation after 60 mins presence of NADPH regenerating system and UDPGA by LC-MS method; assay type: ADME; conditions: 1 h
[4] = Selectivity index, ratio of cytotoxic IC50 for HEK293 cells to EC50 for anti-parasitic activity against Trypanosoma brucei brucei 427 bloodstream parasites; assay type: toxicity, cell-based; conditions: human, read-out: Ratio IC50/EC50
[5] = Partition coefficient, logD of the compound at pH 7.4 by HPLC method; assay type: physicochemical; conditions: octanol/water
Trypanosoma cruzi = assay: Anti-parasitic activity against Trypanosoma cruzi Tulahuen C2C4 trypomastigotes infected rat L6 cells incubated for 96 hrs by CPRG/nonidet substrate based […]; assay type: functional, organism-based; conditions: Tulahuen C2C4, L6, 96 h
[6] = Selectivity index, ratio of cytotoxic IC50 for rat L6 cells to EC50 for anti-parasitic activity against Trypanosoma brucei rhodesiense STIB 900; assay type: toxicity, cell-based; conditions: read-out: Ratio IC50/EC50
Liver microsome [7] = assay: Drug metabolism in human liver microsomes assessed as N-oxide metabolite formation after 60 mins at 10 uM absence of NADPH regenerating system and UDPGA by LC-MS method; assay type: ADME; conditions: 1 h
Liver microsome [8] = assay: Drug metabolism in human liver microsomes assessed as oxygenated metabolite formation after 60 mins at 10 uM presence of NADPH regenerating system by LC-MS method; assay type: ADME; conditions: 1 h
[9] = Stability assessed as degradation half life; assay type: physicochemical
[10] = system: Trypanosoma brucei brucei; assay: Anti-parasitic activity against Trypanosoma brucei brucei 427 bloodstream parasites incubated for 48 hrs by alamar blue dye based assay; assay type: functional, organism-based; conditions: Trypanosoma brucei, 427, 48 h
[11] = Drug metabolism in human liver microsomes after 60 mins at 10 uM presence of NADPH regenerating system by LC-MS method; assay type: ADME; conditions: read-out: Drug metabolism
[12] = Toxicity against rat L6 cells incubated for 70 hrs by alamar blue dye based assay; assay type: cell-based
[13] = Drug stability in human liver microsomes assessed as parent compound loss after 60 mins at 10 uM absence of NADPH regenerating system and UDPGA by LC-MS method; assay type: ADME; conditions: read-out: Drug degradation
Liver microsome [14] = assay: Drug metabolism in human liver microsomes assessed as oxygenated metabolite formation after 60 mins at 10 uM presence of NADPH regenerating system and UDPGA by LC-MS method; assay type: ADME; conditions: 1 h
[15] = Kinetic solubility in pH 6.5 phosphate buffer by nephelometry; assay type: physicochemical; conditions: read-out: Kinetic_solubility
[16] = Kinetic solubility in pH 2.0 0.01M HCl buffer by nephelometry; assay type: physicochemical; conditions: read-out: Kinetic_solubility
Leishmania donovani = assay: Anti-parasitic activity against Leishmania donovani MHOM/ET/67/L82 axenic amastigotes incubated for 70 hrs by alamar blue dye based assay; assay type: functional, organism-based; conditions: MHOM/ET/67/L82, 70 h
[17] = Intrinsic clearance in human liver microsomes assessed per mg protein at pH 7.4 at 0.5 uM in presence of NADPH regenerating system by LC-MS method; assay type: ADME; conditions: read-out: CLH
[18] = system: Trypanosoma brucei rhodesiense; assay: Anti-parasitic activity against Trypanosoma brucei rhodesiense STIB 900 trypomastigotes incubated for 70 hrs by alamar blue dye based assay; assay type: functional, organism-based; conditions: STIB 900, 70 h
Plasmodium falciparum = assay: Anti-parasitic activity against chloroquine and pyrimethamine resistant Plasmodium falciparum K1 erythrocytic stages infected in human erythrocytes incubated for 48 hrs by [3H]-hypoxanthine incorporation assay; assay type: functional, organism-based
serum albumin = serum albumin (Homo sapiens, UniProt P02768); assay: Binding affinity to human serum albumin by chromatographic method; assay type: ADME; conditions: read-out: PB (converted)
[19] = Volume of distribution in Swiss mouse at 1.8 mg/kg, iv by LC-MS method; assay type: ADME, organism-based; conditions: in vivo
Mus musculus = assay: Blood clearance in Swiss mouse at 1.8 mg/kg, iv by LC-MS method relative to hepatic blood flow; assay type: ADME, organism-based, Liver; conditions: in vivo
[20] = Apparent half life in Swiss mouse at 1.8 mg/kg, iv by LC-MS method; assay type: ADME, organism-based; conditions: in vivo, read-out: t1/2(app) (converted)
[21] = Blood clearance in Swiss mouse at 1.8 mg/kg, iv by LC-MS method; assay type: ADME, organism-based; conditions: whole blood

Sequence of serum albumin (P02768 whole entry): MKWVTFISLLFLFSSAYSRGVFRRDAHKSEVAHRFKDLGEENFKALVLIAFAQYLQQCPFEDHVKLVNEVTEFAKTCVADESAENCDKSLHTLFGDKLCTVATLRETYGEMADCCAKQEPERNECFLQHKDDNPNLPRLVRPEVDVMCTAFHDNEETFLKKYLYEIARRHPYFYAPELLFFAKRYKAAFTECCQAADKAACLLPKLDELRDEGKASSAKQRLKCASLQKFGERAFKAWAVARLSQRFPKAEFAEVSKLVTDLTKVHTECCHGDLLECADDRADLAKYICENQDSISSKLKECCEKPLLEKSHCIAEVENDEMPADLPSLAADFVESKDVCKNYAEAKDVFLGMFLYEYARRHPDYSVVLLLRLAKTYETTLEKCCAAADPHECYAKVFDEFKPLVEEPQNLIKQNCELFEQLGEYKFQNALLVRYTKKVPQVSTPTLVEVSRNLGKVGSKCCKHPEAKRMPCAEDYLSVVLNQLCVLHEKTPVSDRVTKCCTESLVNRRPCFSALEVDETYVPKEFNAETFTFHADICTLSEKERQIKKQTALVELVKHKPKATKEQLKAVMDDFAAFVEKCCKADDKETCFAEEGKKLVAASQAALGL

Drug metabolism (Liver microsome [1]): metabolite_detected | Drug metabolism (Liver microsome [2]): metabolite_detected | Drug metabolism (Liver microsome [3]): metabolite_detected
Structure (SMILES): Cc1cccc(-c2c[n+]([O-])c(N)c(C(=O)NC3CCCC3)n2)c1

Structure (SMILES): Cc1cccc(-c2cnc(N)c(C(=O)NC3CCCC3)n2)c1
selectivity ratio [4]: 2380 | logD [5]: 4.6 | EC50 (Trypanosoma cruzi): 17 µM | selectivity ratio [6]: 1790 | Drug metabolism (Liver microsome [7]): metabolite_detected | Drug metabolism (Liver microsome [8]): metabolite_detected | half-life [9]: 7 min | EC50 [10]: 0.035 µM | metabolised at 1 h, 10 µM [11]: 92% | IC50 at 70 h [12]: 42 µM | metabolised at 1 h, 10 µM [13]: 6% | Drug metabolism (Liver microsome [14]): metabolite_detected | solubility kinetic [15]: 3.1 µg/mL (≈ 10.5 µM) | solubility kinetic [16]: 3.1 µg/mL (≈ 10.5 µM) | EC50 (Leishmania donovani): > 10 µM | microsomal CLint at 0.5 µM [17]: 266 µL/min/mg | EC50 [18]: 0.024 µM | EC50 (Plasmodium falciparum): 4.9 µM | fraction unbound (serum albumin): 0.023

Structure (SMILES): CCC(CC)NC(=O)c1nc(-c2ccc(F)cc2)cnc1N
selectivity ratio [4]: 1024 | logD [5]: 4.4 | EC50 (Trypanosoma cruzi): 15 µM | selectivity ratio [6]: 540 | half-life [9]: 21 min | EC50 [10]: 0.08 µM | Vd [19]: 14.7 L/kg | CL (Mus musculus): 60% | IC50 at 70 h [12]: 28 µM | half-life [20]: 546 min | solubility kinetic [15]: 3.1 µg/mL (≈ 10.3 µM) | solubility kinetic [16]: 3.1 µg/mL (≈ 10.3 µM) | EC50 (Leishmania donovani): > 10 µM | microsomal CLint at 0.5 µM [17]: 84 µL/min/mg | EC50 [18]: 0.053 µM | clearance [21]: 69 mL/min/kg | EC50 (Plasmodium falciparum): 7.6 µM | fraction unbound (serum albumin): 0.036
